For data set [1], the system named is CAR-expressing, transduced T cells. The data set can be described thus: Proliferation of CARTs co-cultured with Nalm-6 cells in presence of RAD001. In kind it is cell-based. The conditions noted are these: low doses of RAD001, 4 days of co-culture with Nalm-6 cells. Here is the method:
CARTs were co-cultured with Nalm-6 cells in the presence of different concentrations of RAD001. The number of CAR-positive CD3-positive T cells (black) and total T cells (gray) was assessed after 4 days of co-culture.

The test system of data set [2] is humanized CD19 CART cells. The data set can be described thus: In vivo proliferation of humanized CD19 CART cells with and without RAD001 dosing. The note with it: RAD001 0.003 mg/kg daily, with huCAR19. The method, then: FIGS. 46A and 46B show in vivo proliferation of humanized CD19 CART cells with and without RAD001 dosing. […] Circles denote PBS; squares denote huCTL019; triangles denote huCTL019 with 3 mg/kg RAD001; inverted triangles denote huCTL019 with 0.3 mg/kg RAD001; diamonds denote huCTL019 with 0.03 mg/kg RAD001; and circles denote huCTL019 with 0.003 mg/kg RAD001.

The subject of data set [3] is huCART19 cells co-cultured with Nalm-6. The data set can be described thus: huCART19 proliferation in 4 day co-culture with Nalm-6 in presence of RAD001. Type of data set: cell-based, human. From the text: A humanized, anti-human CD19 CAR (huCART19) lentiviral transfer vector was used to produce the genomic material packaged into VSVg pseudotyped lentiviral particles. The amino acid and nucleotide sequence of the humanized anti-human CD19 CAR (huCART19) is CAR 1, ID 104875 described in PCT publication, WO2014/153270, filed Mar. 15, 2014, and is designated SEQ ID NOs. 85 and 31 therein.
Lentiviral transfer vector DNA is mixed with the three packaging components VSVg env, gag/pol and rev in combination with lipofectamine reagent to transfect Lenti-X 293T cells. Medium is changed after 24h and 30h thereafter, the virus-containing media is collected, filtered and stored at −80° C. CARTs are generated by transduction of fresh or frozen naïve T cells obtained by negative magnetic selection of healthy donor blood or leukopak. […] The percentage of cells transduced (expressing the CARs on the cell surface) and the level of CAR expression (relative fluorescence intensity, Geo Mean) are determined by flow cytometric analysis between days 7 and 9. […]
To evaluate the functionality of CARTs, the T cells are thawed and counted, and viability is assessed by Cellometer. […]
For measuring the proliferation of CARTs, T cells are cultured with target cells at a ratio of 1:1. […] The number of T cells is assessed by flow cytometry using counting beads as reference.

In a further data set the test system is NALM6-luc tumors. Kind of data set: NALM6-luc tumor growth under daily oral RAD001. The note with it: daily oral dosing of RAD001 alone. Type of data set: in vivo, NSG mice. Here is the method:
NALM6-luc cells: The NALM6 human acute lymphoblastic leukemia (ALL) cell line was developed from the peripheral blood of a patient with relapsed ALL. The cells were then tagged with firefly luciferase. These suspension cells grow in RPMI supplemented with 10% heat inactivated fetal bovine serum.
Mice: 6 week old NSG (NOD.Cg-Prkdc^scidIl2rg^tm1Wjl/SzJ) mice were received from the Jackson Laboratory (stock number 005557).
Tumor implantation: NALM6-luc cells were grown and expanded in vitro in RPMI supplemented with 10% heat inactivated fetal bovine serum. The cells were then transferred to a 15 ml conical tube and washed twice with cold sterile PBS. NALM6-luc cells were then counted and resuspended at a concentration of 10×10^6 cells per milliliter of PBS. The cells were placed on ice and immediately (within one hour) implanted in the mice. NALM6-luc cells were injected intravenously via the tail vein in a 100 µl volume, for a total of 1×10^6 cells per mouse.
(§1) RAD001 dosing: A concentrated micro-emulsion of 50 mg equal to 1 mg RAD001 was formulated and then resuspended in D5W (dextrose 5% in water) at the time of dosing. Mice were orally dosed daily (via oral gavage) with 200 μl of the desired doses of RAD001.

Data set [4] is described as follows: RAD001 PK analysis in blood of NALM6-luc tumor bearing mice. In kind it is in vivo, NSG mice. Here is the method: as §1
PK analysis: Mice were dosed daily with RAD001 starting 7 days post tumor implantation. Dosing groups were as follows: 0.3 mg/kg, 1 mg/kg, 3 mg/kg, and 10 mg/kg. Mice were bled on days 0 and 14 following the first and last dose of RAD001, at the following time points for PK analysis: 15 minutes, 30 minutes, 1 hour, 2 hours, 4 hours, 8 hours, 12 hours, and 24 hours.

Another data set deals with huCAR19 CAR T cells. Kind of data set: huCAR19 CAR T cell expansion in vivo with RAD001 (FACS). The note with it: lowest doses of RAD001, daily oral; more evident with CD4+ than CD8+ CAR T cells. The arrangement: species or system NSG mice. Here is the method: CAR T cell dosing: Mice were administered 5×10^6 CAR T cells 7 days after tumor implantation. Cells were partially thawed in a 37 degree Celsius water bath and then completely thawed by the addition of 1 ml of cold sterile PBS to the tube containing the cells. The thawed cells were transferred to a 15 ml falcon tube and adjusted to a final volume of 10 mls with PBS. The cells were washed twice at 1000 rpm for 10 minutes each time and then counted on a hemocytometer. T cells were then resuspended at a concentration of 50×10^6 CAR T cells per ml of cold PBS and kept on ice until the mice were dosed. The mice were injected intravenously via the tail vein with 100 μl of the CAR T cells for a dose of 5×10^6 CAR T cells per mouse. Eight mice per group were treated either with 100 μl of PBS alone (PBS), or humanized CD19 CAR T cells.
as §1
Based on these doses, huCAR19 CAR T cells were dosed with and without RAD001 to determine the proliferative ability of these cells. The highest dose used was 3 mg/kg based on the levels of RAD001 in the blood 24 hours after dosing. […] Mice were monitored via FACS for T cell expansion.

Molecules are shown by their SMILES.

We go through one compound from patent US20220064316A1, “TREATMENT OF CANCER USING HUMANIZED ANTI-BCMA CHIMERIC ANTIGEN RECEPTOR” (The Trustees of the University of Pennsylvania, priority 2014, published 2022).

`CO[C@H]1C[C@@H]2CC[C@@H](C)[C@@](O)(O2)C(=O)C(=O)N2CCCC[C@H]2C(=O)O[C@H]([C@H](C)C[C@@H]2CC[C@@H](OCCO)[C@H](OC)C2)CC(=O)[C@H](C)/C=C(\C)[C@@H](O)[C@@H](OC)C(=O)[C@H](C)C[C@H](C)/C=C/C=C/C=C/1C` [RAD001, (1R,9S,12S,15R,16E,18R,19R,21R,23 S,24E,26E,28E,30S,32S,35R)-1,18-dihydroxy-12-{(1R)-2-[(1S,3R,4R)-4-(2-hydroxyethoxy)-3-methoxycyclohexyl]-1-methylethyl}-19,30-dimethoxy-15,17,21,23,29,35-hexamethyl-11,36-dioxa-4-aza-tricyclo[30.3.1.04,9]hexatriaconta-16,24,26,28-tetraene-2,3,10,14,20-pentaone]: the “proliferation of CAR-expressing, transduced T cells” value in data set [1] was “enhanced”. The “CAR T cell proliferation in vivo” value in data set [2] is given as “enhancement in CAR T cell proliferation”. Besides, the “huCART19 proliferation versus no RAD001” value in data set [3] (0.0032 and 0.016 nM RAD001) is on record as “higher than observed without the addition of RAD001”. The “RAD001 concentration at which huCART19 cells expanded” value in data set [3] (4 day co-culture with Nalm-6, 1:1, lesser extent at higher concentrations) was “less than 0.016 nM”. Also, the “growth of NALM6-luc tumors” value in the data set on NALM6-luc tumors is “did not have an impact”. Moreover, the concentration at 24 h in data set [4] (NSG, mouse, whole blood, 24 hours after dosing, 0.3 mg/kg oral daily, day 0 and day 14, read-out: RAD001 concentrations in the blood) was greater than 10 nM. For the same compound, the “stability in the blood” value in data set [4] (tumor bearing mice, FIGS. 45A, 45B) was “fairly stable”. The “proliferation of the CAR T cells in vivo” value with huCAR19 CAR T cells is on record as “enhanced proliferation”.
